In patent publication US20100216994A1, “USE OF NOVEL COMPOUND HAVING AFFINITY FOR AMYLOID, AND PROCESS FOR PRODUCTION OF THE SAME” (NIHON MEDI-PHYSICS CO., LTD., priority 2007, published 2010):

Tests used:
[1] = target: T1, intracerebral amyloid (aggregated Aβ1-42) (Homo sapiens, UniProt P05067); assay: Confirmation of imaging of amyloid in brain (autoradiogram of brain slice, amyloid injected into amygdaloid nucleus); assay type: in vivo, male Wistar rat; conditions: rat, tail vein injection, brain removed 60 minutes after injection
T1 construct: Aβ1-42 (Wako) was dissolved in phosphate buffer (pH 7.4); purchased Wako
Protocol: (§1) The following experiment was carried out in order to examine whether amyloid in brain can be imaged by the compound of the present invention.
(§2) (1) Aβ1-42 (Wako) was dissolved in phosphate buffer (pH 7.4) and shaken at 37° C. for 72 hours, to obtain a 1 mg/mL suspension of aggregated Aβ (hereinafter referred to as amyloid suspension in this Example).
(§3) (2) Under thiopental anesthesia, […] of the amyloid suspension was injected into an amygdaloid nucleus on one side of a male Wistar rat (7-week old). As a control, 2.5 μL of a phosphate buffered physiological saline solution (pH 7.4) was injected into an amygdaloid nucleus on the other side of the rat. The rats were examined 1 day after the injection of the amyloid suspension and the phosphate buffered physiological saline solution (pH 7.4).
(§4) This sample solution was injected under thiopental anesthesia into the rat through the tail vein (dosage: 0.5 mL, dosed radioactivity: 16 MBq equivalent).
(§5) (4) Brain was removed 60 minutes after the injection to prepare a brain slice of 10 μm in thickness with a microtome (type: CM3050S, manufactured by LEICA). The brain slice was exposed to an imaging plate for 20 hours, and then image analysis was carried out by use of a Bio-imaging Analyzer (type: BAS-2500; manufactured by FUJIFILM Corporation).

[2] = system: intracerebral amyloid (aggregated Aβ1-42); assay: as above; assay type: in vivo, male Wistar rat; conditions: rat, tail vein injection, brain removed 60 minutes after injection
Protocol: as §1, §2, §3, §4, §5

[3] = Transferability into brain and clearance (radioactive accumulation in brain after intravenous injection); conditions: rats
Protocol: Using [^123I]-2-(4′-iodophenyl)-6-methoxyimidazo[1,2-a]pyridine and [^123I]-2-(4′-fluorophenyl)-6-iodoimidazo[1,2-a]pyridine, a time course change of radioactive accumulation in brain of male Wistar rats (7-week old) was measured.
The rats were sacrificed by bleeding from abdominal artery, and brains were removed and subjected to measurement of mass of brains (hereinafter referred to as A in this Example) and further subjected to measurement of radioactivity with a single channel analyzer (detector type: SP-20 manufactured by OHYO KOKEN KOGYO Co., Ltd.) 2, 5, 30 and 60 minutes after the injection. Also, radioactivity (hereinafter referred to as B in this Example) of the rest of the whole body was measured in the same manner as above.
The same procedures as above was conducted and subjected to the same procedures as above to calculate radioactive accumulation per unit weight of a brain (% ID/g) at the respective time points were calculated.
Three animals were used for Example 15, Example 16 and Comparative Example 2 at the respective time points.

[4] = Partition coefficient based on the octanol extraction method (logPoctanol); conditions: octanol / 10 mmol/L phosphate buffer (pH 7.4)
Protocol: 10 μL each of the prepared sample solution was respectively added to 2 mL of octanol, further, 2 mL of 10 mmol/L phosphate buffer (pH 7.4) was added, and stirred for 30 seconds. After the mixture was centrifuged with a low-speed centrifuge (2000 rpm×60 min.), the octanol layer and the water layer were sampled each in an amount of 1 mL, and subjected to measurement of radioactivity count with an autowell gamma system (Type: ARC-301B, manufactured by Aloka). Using the obtained radioactivity count, logPoctanol was calculated in accordance with the equation (2).

T1 sequence (P05067 672-713): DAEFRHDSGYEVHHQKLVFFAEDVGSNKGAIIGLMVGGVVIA

| Structure (SMILES) | accumulation of radioactivity in amygdaloid nucleus on the side to which the amyloid suspension was injected [1] | accumulation of radioactivity in amygdaloid nucleus on the side to which the physiological saline solution was injected [2] | Radioactive accumulation per unit weight in brain ([3]; after 2 min.) | Radioactive accumulation per unit weight in brain ([3]; after 5 min.) | Radioactive accumulation per unit weight in brain ([3]; after 30 min.) | Radioactive accumulation per unit weight in brain ([3]; after 60 min.) | logPoctanol value [4] |
| --- | --- | --- | --- | --- | --- | --- | --- |
| Fc1ccc(-c2cn3cc([123I])ccc3n2)cc1 [[^123I]-2-(4′-fluorophenyl)-6-iodoimidazo[1,2-a]pyridine] | marked accumulation of radioactivity | no significant accumulation of radioactivity | 1.00 % ID/g | 0.72 % ID/g | 0.12 % ID/g | 0.05 % ID/g | 2.3 |
| CN(C)c1ccc(-c2cn3cc([123I])ccc3n2)cc1 [[^123I]-IMPY, reference compound] | – | – | 1.19 % ID/g | 0.97 % ID/g | 0.23 % ID/g | 0.09 % ID/g | 1.9 |
| COc1ccc(-c2cn3cc([123I])ccc3n2)cc1 [[^123I]-6-iodo-2-(4′-methoxyphenyl)imidazo[1,2-a]pyridine] | marked accumulation of radioactivity | no significant accumulation of radioactivity | 1.04 % ID/g | 0.72 % ID/g | 0.12 % ID/g | 0.04 % ID/g | 1.7 |
